A word on the inhibition: it is the relative decrease from the control value, in per cent.

For one assay, the target named is DNA-PK(h) (Homo sapiens, UniProt P78527). Nature of the assay: Evaluation of inhibitory activity against DNA-PK (HTRF kinase assay, GST-cMyc-p53 substrate). Format: biochemical. Particulars: for inhibition at 0.01 µM: compound concentration 0.01 μM, read-out: EXP_VALUE(% Inhibition) DNA-PK(h) 0.01 μM; for inhibition at 0.1 µM: compound concentration 0.1 μM, read-out: EXP_VALUE(% Inhibition) DNA-PK(h) 0.1 μM. In short, it runs like this: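 Human DNA-PK with 50 μM GST-cMyc-p53 substrate; reaction started with Mg/ATP, run 30 min at room temperature, stopped with EDTA. Phospho-Ser15 p53 detected by HTRF (Eu anti-phospho-Ser15, d2 anti-GST), signal = 10000×(Em 665/Em 620).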
In general terms: In TR-FRET formats the signal depends on donor and acceptor labels being close together.

For assay [1], the target named is PI3K-δ (PI3K(p1108/p857) (h)) (Homo sapiens, UniProt O00329). Nature of the assay: Evaluation of inhibitory activity against PI3K-δ (HTRF kinase assay). Format: biochemical. Particulars: for inhibition at 0.01 µM: compound concentration 0.01 μM, read-out: EXP_VALUE(% Inhibition) PI3K-δ 0.01 μM; for inhibition at 0.1 µM: compound concentration 0.1 μM, read-out: EXP_VALUE(% Inhibition) PI3K-δ 0.1 μM. Put shortly:
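HTRF read-out (665/620 nm ratio ×10000) used Eu-labelled anti-GST, GST-tagged GRP1 PH domain and streptavidin-allophycocyanin after EDTA/PIP3 stop.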

PI3K-δ (PI3K(p1108/p857) (h)), sequence (O00329 whole entry, the tested form may be a part): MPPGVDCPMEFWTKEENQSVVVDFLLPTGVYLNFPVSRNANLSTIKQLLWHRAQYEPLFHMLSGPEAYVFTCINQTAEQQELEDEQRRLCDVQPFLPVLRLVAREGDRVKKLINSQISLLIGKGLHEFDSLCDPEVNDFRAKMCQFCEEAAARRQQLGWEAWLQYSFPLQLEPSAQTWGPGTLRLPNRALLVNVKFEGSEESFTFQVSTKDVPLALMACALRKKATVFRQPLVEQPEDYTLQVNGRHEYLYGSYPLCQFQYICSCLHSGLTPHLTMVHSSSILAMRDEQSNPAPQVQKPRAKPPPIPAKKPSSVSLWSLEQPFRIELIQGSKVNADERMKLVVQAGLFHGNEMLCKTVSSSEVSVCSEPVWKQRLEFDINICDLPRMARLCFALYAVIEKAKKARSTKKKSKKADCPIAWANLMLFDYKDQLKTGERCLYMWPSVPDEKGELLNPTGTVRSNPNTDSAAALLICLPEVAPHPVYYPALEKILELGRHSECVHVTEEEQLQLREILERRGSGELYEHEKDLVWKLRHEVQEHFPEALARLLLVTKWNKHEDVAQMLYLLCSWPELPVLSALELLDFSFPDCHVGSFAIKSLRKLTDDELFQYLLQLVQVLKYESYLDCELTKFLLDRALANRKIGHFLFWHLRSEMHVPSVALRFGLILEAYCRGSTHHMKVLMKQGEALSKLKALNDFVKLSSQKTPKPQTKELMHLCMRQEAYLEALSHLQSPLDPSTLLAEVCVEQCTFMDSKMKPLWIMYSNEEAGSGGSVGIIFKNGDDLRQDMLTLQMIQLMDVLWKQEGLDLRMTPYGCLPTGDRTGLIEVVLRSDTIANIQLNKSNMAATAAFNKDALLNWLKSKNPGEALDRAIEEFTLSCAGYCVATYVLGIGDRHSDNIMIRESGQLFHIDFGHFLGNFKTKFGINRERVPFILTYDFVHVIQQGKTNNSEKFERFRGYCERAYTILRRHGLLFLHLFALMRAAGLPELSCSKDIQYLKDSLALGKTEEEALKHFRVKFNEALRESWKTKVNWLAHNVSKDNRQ
PI3K-δ (PI3K(p1108/p857) (h)), sequence (P27986 whole entry partner, the tested form may be a part): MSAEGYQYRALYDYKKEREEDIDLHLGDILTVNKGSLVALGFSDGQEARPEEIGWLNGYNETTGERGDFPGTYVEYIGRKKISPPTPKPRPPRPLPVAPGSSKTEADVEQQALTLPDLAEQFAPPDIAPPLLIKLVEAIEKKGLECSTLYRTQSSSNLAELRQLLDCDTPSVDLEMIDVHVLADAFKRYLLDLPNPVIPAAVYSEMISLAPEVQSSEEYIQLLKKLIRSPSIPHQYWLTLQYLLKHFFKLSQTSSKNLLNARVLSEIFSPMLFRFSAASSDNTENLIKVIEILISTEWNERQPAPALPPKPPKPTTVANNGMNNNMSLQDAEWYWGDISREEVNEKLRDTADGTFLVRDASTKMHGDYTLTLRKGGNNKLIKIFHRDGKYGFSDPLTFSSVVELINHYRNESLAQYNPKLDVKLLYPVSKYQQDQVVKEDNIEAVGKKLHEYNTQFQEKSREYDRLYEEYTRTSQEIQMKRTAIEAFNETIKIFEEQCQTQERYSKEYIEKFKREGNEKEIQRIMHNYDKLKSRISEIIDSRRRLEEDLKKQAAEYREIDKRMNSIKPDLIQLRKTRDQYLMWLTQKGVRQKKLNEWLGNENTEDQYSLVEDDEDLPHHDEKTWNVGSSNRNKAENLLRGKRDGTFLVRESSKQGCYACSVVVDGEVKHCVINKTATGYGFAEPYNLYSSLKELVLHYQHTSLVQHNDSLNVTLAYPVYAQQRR

Consider `C[C@H](Nc1ncnc2[nH]ccc(=O)c12)c1c(Cl)c2cccc(-c3ccc(C#N)cc3)c2c(=O)n1-c1ccccc1` [Example 259, (S)-4-(4-chloro-1-oxo-3-(1-((5-oxo-5,8-dihydropyrido[2,3-d]pyrimidin-4-yl)amino)ethyl)-2-phenyl-1,2-dihydroisoquinolin-8-yl)benzonitrile], for which the inhibition at 0.01 µM at DNA-PK(h) was found to be 50%; in assay [1], 108%. The inhibition at 0.1 µM at DNA-PK(h) was found to be 86%; in assay [1] it was 116%.
For `Cc1c[nH]c2ccc(-c3cccc4cc([C@H](C)Nc5ncnc6[nH]ccc(=O)c56)n(-c5ccccc5)c(=O)c34)cc12` [Example 263, (S)-4-((1-(8-(3-methyl-1H-indol-5-yl)-1-oxo-2-phenyl-1,2-dihydroisoquinolin-3-yl)ethyl)amino)pyrido[2,3-d]pyrimidin-5(8H)-one], at DNA-PK(h), the inhibition at 0.01 µM is 6% and the inhibition at 0.1 µM was determined as 52%. In addition, in assay [1], the inhibition at 0.01 µM was determined as 77% and the inhibition at 0.1 µM was 89%.
Consider `C[C@H](Nc1ncnc2[nH]ccc(=O)c12)c1cc2cccc(-c3ccc(N(C)C)nc3)c2c(=O)n1-c1ccccc1` [Example 264, (S)-4-((1-(8-(6-(dimethylamino)pyridin-3-yl)-1-oxo-2-phenyl-1,2-dihydroisoquinolin-3-yl)ethyl)amino)pyrido[2,3-d]pyrimidin-5(8H)-one], for which the values for the inhibition at 0.01 µM (at DNA-PK(h); in assay [1]) were 7% and 73%, respectively. The inhibition at 0.1 µM on DNA-PK(h) was found to be 41%; in assay [1], 82%.
With `C[C@H](Nc1ncnc2[nH]ccc(=O)c12)c1c(Cl)c2cccc(C#N)c2c(=O)n1-c1ccccc1` [Example 265, (S)-4-chloro-1-oxo-3-(1-((5-oxo-5,8-dihydropyrido[2,3-d]pyrimidin-4-yl)amino)ethyl)-2-phenyl-1,2-dihydroisoquinoline-8-carbonitrile], at DNA-PK(h), the inhibition at 0.01 µM was 40% and the inhibition at 0.1 µM was found to be 77%. Also, in assay [1], the inhibition at 0.01 µM turned out to be 71% and the inhibition at 0.1 µM was found to be 87%.
As for `C[C@H](Nc1ncnc2[nH]ccc(=O)c12)c1cc2cccc(C#N)c2c(=O)n1-c1ccccc1` [Example 266, (S)-1-oxo-3-(1-((5-oxo-5,8-dihydropyrido[2,3-d]pyrimidin-4-yl)amino)ethyl)-2-phenyl-1,2-dihydroisoquinoline-8-carbonitrile], the inhibition at 0.01 µM is -10% on DNA-PK(h) and 69% in assay [1]. The inhibition at 0.1 µM was 3% on DNA-PK(h) and 88% in assay [1].
On to `CC(=O)c1cccc2c(Cl)c([C@H](C)Nc3ncnc4[nH]ccc(=O)c34)n(-c3ccccc3)c(=O)c12` [Example 267, (S)-4-((1-(8-acetyl-4-chloro-1-oxo-2-phenyl-1,2-dihydroisoquinolin-3-yl)ethyl)amino)pyrido[2,3-d]pyrimidin-5(8H)-one], for which the figures for the inhibition at 0.01 µM (on DNA-PK(h); in assay [1]) were 63% and 92%, respectively.
For `CCCC(=O)c1cccc2c(Cl)c([C@H](C)Nc3ncnc4[nH]ccc(=O)c34)n(-c3ccccc3)c(=O)c12` [Example 268, (S)-4-((1-(8-butyryl-4-chloro-1-oxo-2-phenyl-1,2-dihydroisoquinolin-3-yl)ethyl)amino)pyrido[2,3-d]pyrimidin-5(8H)-one], in that order: 27% and 76%.
As to `C[C@H](Nc1ncnc2[nH]ccc(=O)c12)c1c(Cl)c2cccc(C(=O)C3CC3)c2c(=O)n1-c1ccccc1` [Example 269, (S)-4-((1-(4-chloro-8-(cyclopropanecarbonyl)-1-oxo-2-phenyl-1,2-dihydroisoquinolin-3-yl)ethyl)amino)pyrido[2,3-d]pyrimidin-5(8H)-one], the inhibition at 0.01 µM on DNA-PK(h) turned out to be 26%; in assay [1], 37%.
For the compound `C[C@H](Nc1ncnc2[nH]ccc(=O)c12)c1c(Cl)c2cccc(C=O)c2c(=O)n1-c1ccccc1` [Example 271, (S)-4-chloro-1-oxo-3-(1-((5-oxo-5,8-dihydropyrido[2,3-d]pyrimidin-4-yl)amino)ethyl)-2-phenyl-1,2-dihydroisoquinolin-8-carbaldehyde], the inhibition at 0.01 µM came to 19% at DNA-PK(h) and 60% in assay [1].
Consider `C[C@H](Nc1ncnc2[nH]ccc(=O)c12)c1c(Cl)c2cccc(/C=N/O)c2c(=O)n1-c1ccccc1` [Example 273, (S,E)-4-chloro-1-oxo-3-(1-((5-oxo-5,8-dihydropyrido[2,3-d]pyrimidin-4-yl)amino)ethyl)-2-phenyl-1,2-dihydroisoquinoline-8-carbaldehyde oxime], for which the inhibition at 0.01 µM at DNA-PK(h) came to 36%; in assay [1] it was 44%.
For the compound `CNC(=O)c1cccc2c(Cl)c([C@H](C)Nc3ncnc4[nH]ccc(=O)c34)n(-c3ccccc3)c(=O)c12` [Example 274, (S)-4-chloro-N-methyl-1-oxo-3-(1-((5-oxo-5,8-dihydropyrido[2,3-d]pyrimidin-4-yl)amino)ethyl)-2-phenyl-1,2-dihydroisoquinoline-8-carboxamide], the values for the inhibition at 0.01 µM (on DNA-PK(h); in assay [1]) were 18% and 99%, respectively.
`CCCNC(=O)c1cccc2c(Cl)c([C@H](C)Nc3ncnc4[nH]ccc(=O)c34)n(-c3ccccc3)c(=O)c12` [Example 275, (S)-4-chloro-1-oxo-3-(1-((5-oxo-5,8-dihydropyrido[2,3-d]pyrimidin-4-yl)amino)ethyl)-2-phenyl-N-propyl-1,2-dihydroisoquinoline-8-carboxamide]: the inhibition at 0.01 µM on DNA-PK(h) stood at 8%; in assay [1], 104%.
As to `C[C@H](Nc1ncnc2[nH]ccc(=O)c12)c1c(Cl)c2cccc(C(=O)NC3COC3)c2c(=O)n1-c1ccccc1` [Example 276, (S)-4-chloro-N-(oxetan-3-yl)-1-oxo-3-(1-((5-oxo-5,8-dihydropyrido[2,3-d]pyrimidin-4-yl)amino)ethyl)-2-phenyl-1,2-dihydroisoquinoline-8-carboxamide], the inhibition at 0.01 µM at DNA-PK(h) was 29%; in assay [1], 96%.
On to `C[C@H](Nc1ncnc2[nH]ccc(=O)c12)c1c(Cl)c2cccc(C(=O)NC3CCC3)c2c(=O)n1-c1ccccc1` [Example 277, (S)-4-chloro-N-cyclobutyl-1-oxo-3-(1-((5-oxo-5,8-dihydropyrido[2,3-d]pyrimidin-4-yl)amino)ethyl)-2-phenyl-1,2-dihydroisoquinoline-8-carboxamide], for which the results for the inhibition at 0.01 µM (at DNA-PK(h); in assay [1]) were 8% and 99%, respectively.
On to `C[C@H](Nc1ncnc2[nH]ccc(=O)c12)c1c(Cl)c2cccc(C(=O)NCc3cccs3)c2c(=O)n1-c1ccccc1` [Example 278, (S)-4-chloro-1-oxo-3-(1-((5-oxo-5,8-dihydropyrido[2,3-d]pyrimidin-4-yl)amino)ethyl)-2-phenyl-N-(thiophen-2-ylmethyl)-1,2-dihydroisoquinoline-8-carboxamide], for which the values for the inhibition at 0.01 µM (at DNA-PK(h); in assay [1]) were 6% and 104%, respectively.
For the compound `C[C@H](Nc1ncnc2[nH]ccc(=O)c12)c1c(Cl)c2cccc(C(=O)NCc3ccco3)c2c(=O)n1-c1ccccc1` [Example 279, (S)-4-chloro-N-(furan-2-ylmethyl)-1-oxo-3-(1-((5-oxo-5,8-dihydropyrido[2,3-d]pyrimidin-4-yl)amino)ethyl)-2-phenyl-1,2-dihydroisoquinoline-8-carboxamide], the inhibition at 0.01 µM on DNA-PK(h) turned out to be 11%; in assay [1], 105%.
As to `C[C@H](Nc1ncnc2[nH]ccc(=O)c12)c1c(Cl)c2cccc(C(=O)NCc3ccccc3)c2c(=O)n1-c1ccccc1` [Example 280, (S)—N-benzyl-4-chloro-1-oxo-3-(1-((5-oxo-5,8-dihydropyrido[2,3-d]pyrimidin-4-yl)amino)ethyl)-2-phenyl-1,2-dihydroisoquinoline-8-carboxamide], the values for the inhibition at 0.01 µM (at DNA-PK(h); in assay [1]) were 15% and 91%, respectively.
Consider `C[C@H](Nc1ncnc2[nH]ccc(=O)c12)c1c(Cl)c2cccc(C(=O)NCCN3CCOCC3)c2c(=O)n1-c1ccccc1` [Example 281, (S)-4-chloro-N-(2-morpholinoethyl)-1-oxo-3-(1-((5-oxo-5,8-dihydropyrido[2,3-d]pyrimidin-4-yl)amino)ethyl)-2-phenyl-1,2-dihydroisoquinoline-8-carboxamide], for which the results for the inhibition at 0.01 µM (at DNA-PK(h); in assay [1]) were 13% and 75%, respectively.
Turning to `CC(C)NC(=O)c1cccc2c(Cl)c([C@H](C)Nc3ncnc4[nH]ccc(=O)c34)n(-c3ccccc3)c(=O)c12` [Example 282, (S)-4-chloro-N-isopropyl-1-oxo-3-(1-((5-oxo-5,8-dihydropyrido[2,3-d]pyrimidin-4-yl)amino)ethyl)-2-phenyl-1,2-dihydroisoquinoline-8-carboxamide], the inhibition at 0.01 µM was found to be 14% on DNA-PK(h) and 79% in assay [1].
Regarding `C[C@H](Nc1ncnc2[nH]ccc(=O)c12)c1c(Cl)c2cccc(C(=O)NCC3CC3)c2c(=O)n1-c1ccccc1` [Example 283, (S)-4-chloro-N-(cyclopropylmethyl)-1-oxo-3-(1-((5-oxo-5,8-dihydropyrido[2,3-d]pyrimidin-4-yl)amino)ethyl)-2-phenyl-1,2-dihydroisoquinoline-8-carboxamide], the inhibition at 0.01 µM at DNA-PK(h) amounted to 12%; in assay [1], 81%.
Regarding `C[C@H](Nc1ncnc2[nH]ccc(=O)c12)c1c(Cl)c2cccc(C(=O)NC(C)(C)CO)c2c(=O)n1-c1ccccc1` [Example 284, (S)-4-chloro-N-(1-hydroxy-2-methylpropan-2-yl)-1-oxo-3-(1-((5-oxo-5,8-dihydropyrido[2,3-d]pyrimidin-4-yl)amino)ethyl)-2-phenyl-1,2-dihydroisoquinoline-8-carboxamide], the inhibition at 0.01 µM is 10% on DNA-PK(h) and 25% in assay [1].

The record behind these values is patent US20230072683A1, “PYRIDO-PYRIMIDIN DERIVATIVES AND PHARMACEUTICAL COMPOSITION, FOR USE IN PREVENTING OR TREATING PI3 KINASE RELATED DISEASES, COMPRISING SAME AS ACTIVE INGREDIENT” (BORYUNG PHARMACEUTICAL CO., LTD, priority 2019, published 2023).
